# Experimental data: patent publication US8106197B2, “Aminoheteroaryl compounds as protein kinase inhibitors” (Pfizer Inc., priority 2003, dated 2012)
# Molecular target: T1, HGFR (Homo sapiens, UniProt P08581)
# T1 construct: purchased Upstate 14-526
# Assay: HGFR continuous-coupled spectrophotometric assay
# Assay type: biochemical
# T1 sequence (P08581 974-1390 limits assumed): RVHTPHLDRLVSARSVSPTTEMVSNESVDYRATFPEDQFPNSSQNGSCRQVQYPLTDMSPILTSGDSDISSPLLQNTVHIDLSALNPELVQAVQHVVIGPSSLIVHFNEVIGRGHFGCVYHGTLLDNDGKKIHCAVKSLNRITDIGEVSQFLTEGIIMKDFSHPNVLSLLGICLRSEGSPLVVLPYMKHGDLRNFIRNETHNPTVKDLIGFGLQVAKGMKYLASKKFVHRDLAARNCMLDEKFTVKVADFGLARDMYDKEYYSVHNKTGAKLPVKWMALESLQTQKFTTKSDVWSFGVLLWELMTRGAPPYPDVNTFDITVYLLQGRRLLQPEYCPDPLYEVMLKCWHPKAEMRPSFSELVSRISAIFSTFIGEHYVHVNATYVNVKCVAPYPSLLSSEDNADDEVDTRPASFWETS
row,SMILES,% inhibition
1,Nc1ncc(-c2ccc(C(=O)N3CCC(N4CCCC4)CC3)cc2)cc1OCc1cc(F)cc(F)c1,% inhibition = 14
2,Nc1ncc(-c2ccc(C(=O)N3CCC(N4CCCC4)CC3)cc2)cc1OCc1cccc(F)c1F,% inhibition = 24
3,Nc1ncc(-c2ccc(C(=O)N3CCC(N4CCCC4)CC3)cc2)cc1OCc1ccc(C(=O)NCCN2CCOCC2)cc1,% inhibition = 11
4,Nc1ncc(-c2ccc(C(=O)N3CCC(N4CCCC4)CC3)cc2)cc1OCc1ccc(C(=O)N2CCN(Cc3ccccc3)CC2)cc1,% inhibition = 12
5,Nc1ncc(-c2ccc(C(=O)N3CCC(N4CCCC4)CC3)cc2)cc1OCc1cccc(C(=O)Nc2cccnc2)c1,% inhibition = 10
6,Nc1ncc(-c2ccc(C(=O)N3CCC(N4CCCC4)CC3)cc2)cc1OCc1cccc(C(=O)NCc2cccnc2)c1,% inhibition = 14
7,Nc1ncc(-c2ccc(C(=O)N3CCC(N4CCCC4)CC3)cc2)cc1OCc1cccc(C(=O)NCc2ccncc2)c1,% inhibition = 10
8,Nc1ncc(-c2ccc(C(=O)N3CCC(N4CCCC4)CC3)cc2)cc1OCc1cccc(C(=O)NCCc2ccccn2)c1,% inhibition = 12
9,Nc1ncc(-c2ccc(C(=O)N3CCC(N4CCCC4)CC3)cc2)cc1OCc1cccc(C(=O)NC2CCN(Cc3ccccc3)C2)c1 (centres unmarked),% inhibition = 13
10,Nc1ncc(-c2ccc(C(=O)N3CCC(N4CCCC4)CC3)cc2)cc1OCc1ccc(C(=O)NCCN2CCCC2)cc1,% inhibition = 10
11,Nc1ncc(-c2ccc(C(=O)N3CCC(N4CCCC4)CC3)cc2)cc1OCc1ccc(C(=O)NCCCN2CCCC2=O)cc1,% inhibition = 11
12,Nc1ncc(-c2ccc(C(=O)N3CCC(N4CCCC4)CC3)cc2)cc1OCc1cccc(C(=O)NC2CCN(Cc3ccccc3)CC2)c1,% inhibition = 13
13,Nc1ncc(-c2ccc(C(=O)N3CCC(N4CCCC4)CC3)cc2)cc1OCc1ccc(C(=O)NC2CCN(Cc3ccccc3)CC2)cc1,% inhibition = 11
14,CCN1CCCC1CNC(=O)c1cccc(COc2cc(-c3ccc(C(=O)N4CCC(N5CCCC5)CC4)cc3)cnc2N)c1 (centres unmarked),% inhibition = 10
15,CCN1CCCC1CNC(=O)c1ccc(COc2cc(-c3ccc(C(=O)N4CCC(N5CCCC5)CC4)cc3)cnc2N)cc1 (centres unmarked),% inhibition = 18
16,CN(C)c1ccc(NC(=O)c2cccc(COc3cc(-c4ccc(C(=O)N5CCC(N6CCCC6)CC5)cc4)cnc3N)c2)cc1,% inhibition = 23

row,SMILES,% inhibition
1,CCN(CC)c1ccc(NC(=O)c2ccc(COc3cc(-c4ccc(C(=O)N5CCC(N6CCCC6)CC5)cc4)cnc3N)cc2)cc1,% inhibition = 47
2,Nc1ncc(-c2ccc(C(=O)N3CCC(N4CCCC4)CC3)cc2)cc1OCc1ccc(C(=O)NC2CCN(Cc3ccccc3)C2)cc1 (centres unmarked),% inhibition = 24
3,Nc1ncc(-c2ccc(C(=O)N3CCC(N4CCCC4)CC3)cc2)cc1OCc1cccc(C(=O)Nc2ccc(N3CCCCC3)cc2)c1,% inhibition = 32
4,CC(C)Oc1cc(C(F)(F)F)nc2ccc(COc3cc(-c4ccc(C(=O)N5CCC(N6CCCC6)CC5)cc4)cnc3N)cc12,% inhibition = 19
5,CN(C)CCNC(=O)c1cccc(COc2cc(-c3ccc(C(=O)N4CCC(N5CCCC5)CC4)cc3)cnc2N)c1,% inhibition = 20
6,Nc1ncc(-c2ccc(C(=O)N3CCC(N4CCCC4)CC3)cc2)cc1OCc1cc(C(F)(F)F)ccc1Cl,% inhibition = 26
7,Nc1ncc(-c2ccc(C(=O)N3CCC(N4CCCC4)CC3)cc2)cc1OCc1cc(F)ccc1C(F)(F)F,% inhibition = 26
8,Nc1ncc(-c2ccc(C(=O)N3CCC(N4CCCC4)CC3)cc2)cc1OCc1ccccc1OC(F)(F)F,% inhibition = 21
9,CCOC(=O)C1CCN(C(=O)c2ccc(COc3cc(-c4ccc(C(=O)N5CCC(N6CCCC6)CC5)cc4)cnc3N)cc2)CC1,% inhibition = 16
10,CCOC(=O)CCNC(=O)c1cccc(COc2cc(-c3ccc(C(=O)N4CCC(N5CCCC5)CC4)cc3)cnc2N)c1,% inhibition = 14
11,COC(=O)c1ccc(COc2cc(-c3ccc(C(=O)N4CCC(N5CCCC5)CC4)cc3)cnc2N)c(OC)c1,% inhibition = 15
12,Nc1ncc(-c2ccc(C(=O)N3CCC(N4CCCC4)CC3)cc2)cc1OCc1cscn1,% inhibition = 12
13,Nc1ncc(-c2ccc(C(=O)N3CCC(N4CCCC4)CC3)cc2)cc1OCc1cccc(CO)n1,% inhibition = 15
14,Cc1noc(COc2cc(-c3ccc(C(=O)N4CCC(N5CCCC5)CC4)cc3)cnc2N)n1,% inhibition = 11
15,Nc1ncc(-c2ccc(C(=O)N3CCC(N4CCCC4)CC3)cc2)cc1OCc1cn2ccccc2n1,% inhibition = 11

# Further lines, results first:
row,% inhibition,SMILES
1,% inhibition = 20,Nc1ncc(-c2ccc(C(=O)N3CCC(N4CCCC4)CC3)cc2)cc1OCc1ccc(OC(F)(F)F)cc1
2,% inhibition = 10,COc1ccc(-c2nc(COc3cc(-c4ccc(C(=O)N5CCC(N6CCCC6)CC5)cc4)cnc3N)no2)cc1
3,% inhibition = 31,Nc1ncc(-c2ccc(C(=O)N3CCC(N4CCCC4)CC3)cc2)cc1OCc1ccc(Br)cc1F
4,% inhibition = 45,Nc1ncc(-c2ccc(C(=O)N3CCC(N4CCCC4)CC3)cc2)cc1OCc1cc(Br)cc(Br)c1
5,% inhibition = 11,CS(=O)(=O)c1ccc(COc2cc(-c3ccc(C(=O)N4CCC(N5CCCC5)CC4)cc3)cnc2N)cc1
6,% inhibition = 77,N#Cc1ccccc1-c1ccc(COc2cc(-c3ccc(C(=O)N4CCC(N5CCCC5)CC4)cc3)cnc2N)cc1
7,% inhibition = 9,CN(C)CCNC(=O)c1ccc(COc2cc(-c3ccc(C(=O)N4CCC(N5CCCC5)CC4)cc3)cnc2N)cc1
8,% inhibition = 7,Nc1ncc(-c2ccc(C(=O)N3CCC(N4CCCC4)CC3)cc2)cc1OCc1ccc(C(=O)NCc2ccccn2)cc1
9,% inhibition = 11,Nc1ncc(-c2ccc(C(=O)N3CCC(N4CCCC4)CC3)cc2)cc1OCc1ccc(C(=O)NCCc2ccccn2)cc1
10,% inhibition = 15,Nc1ncc(-c2ccc(C(=O)N3CCC(N4CCCC4)CC3)cc2)cc1OCc1ccc(C(=O)NCc2cccnc2)cc1
11,% inhibition = 21,Nc1ncc(-c2ccc(C(=O)N3CCC(N4CCCC4)CC3)cc2)cc1OCc1csc(-c2ccc(C(F)(F)F)cc2)n1
12,% inhibition = 59,Nc1ncc(-c2ccc(C(=O)N3CCC(N4CCCC4)CC3)cc2)cc1OCc1ccc2ccccc2c1Br
13,% inhibition = 24,Nc1ncc(-c2ccc(C(=O)N3CCC(N4CCCC4)CC3)cc2)cc1OCc1ccc(C(F)(F)F)c(F)c1
14,% inhibition = 15,Nc1ncc(-c2ccc(C(=O)N3CCC(N4CCCC4)CC3)cc2)cc1OCc1ccc(S(=O)(=O)Nc2ccc(F)cc2)cc1
15,% inhibition = 17,Nc1ncc(-c2ccc(C(=O)N3CCC(N4CCCC4)CC3)cc2)cc1OCc1ccc(-c2ccnc(Br)n2)cc1
16,% inhibition = 13,Nc1ncc(-c2ccc(C(=O)N3CCC(N4CCCC4)CC3)cc2)cc1OCc1cccc(-c2ccnc(Br)n2)c1
17,% inhibition = 13,Nc1ncc(-c2ccc(C(=O)N3CCC(N4CCCC4)CC3)cc2)cc1OCc1ccc(C(F)(F)F)nc1
18,% inhibition = 17,Nc1ncc(-c2ccc(C(=O)N3CCC(N4CCCC4)CC3)cc2)cc1OCc1ccc(S(N)(=O)=O)cc1
19,% inhibition = 33,Nc1ncc(-c2ccc(C(=O)N3CCC(N4CCCC4)CC3)cc2)cc1OCc1ccc(-c2cnc(Br)nc2)cc1
